Series [1] can be described thus: Pharmacokinetic studies with 14C-paclitaxel or 3H-PLGA. On the set-up: species or system Sprague Dawley rats. To be noted: male, Sprague Dawley, rat, in vivo. As for the experimental part:
12 male Sprague Dawley rats weighing approximately 250 g with bilateral jugular catheters were obtained from Charles River Laboratories (Wilmington, Mass.). […] 200-500 μL of blood was collected via the right catheter at 1, 3, 6, 9 and 24 h after injection (n=6). In a separate study to assess targeted lipid-polymeric nanoparticle polymer levels in circulation, 400 μl, of NPs synthesized with ^3H-PLGA was injected in saline (100 μCi/mL) and 100 μL of blood was collected at 1, 3, 6, 9, 24, 48, 96 and 120 h after injection (n=6). Blood radioactivity was quantified as disintegrations per minute (DPM) using the PerkinElmer Tri-Carb 2810TR liquid scintillation analyzer.
Blood and tissue samples were processed as described by Chan J M, et al. Methods Mol. Biol. 2010; 624:163-175, with modifications. Solvable tissue solubilizer and Hionic-Fluor scintillation cocktail were purchased from PerkinElmer (Waltham, Mass.). All samples were weighed before processing. To prepare blood samples for radioisotope counting, 1.5 mL of tissue solubilizer was added to ≦0.5 mL blood and incubated at 55-60° C. for 2 h to dissolve the blood samples. Next, 50 μL of 0.5 mol/L EDTA-di-sodium salt solution was added to reduce foaming and 0.5 mL of hydrogen peroxide (300 g/L) was added dropwise with gentle agitation. Samples were further incubated at 55-60° C. for 1 h. To prepare tissue samples for radioisotope counting, kidney, spleen, liver, heart, and lung tissues (≦150 mg) were similarly processed, except with 4.0 mL of tissue solubilizer instead. Finally, 16 mL of Hionic-Fluor scintillation cocktail was added to both blood and tissue samples, and samples were subjected to temperature and light-adaptation for 1 h before counting. Sample radioactivity was read as disintegrations per minute (DPM) of either ^14C or ^3H radioisotopes using the PerkinElmer Tri-Carb 2810TR liquid scintillation analyzer, and standardized as DPM per gram of tissue or blood (DPM/g) based on the weight of the sample. […]

A short description of series [2]: in vivo. Conditions: male, Swiss albino, mouse, in vivo, iv. The method, then: (§1) Clinical monitoring over seven days was carried out for any signs of adverse effects.
(§2) At the end of the study, animals were sacrificed by CO2 inhalation. Gross necropsy was performed and H&E sections of the major organs (liver, lung, heart, spleen, kidney, nerves) were examined for any signs of toxicity.

The subject of series [3] is Swiss albino mice. The series can be described thus: in vivo. As for the experimental part: as §1, §2
The test system of series [4] is Matrigel. Description: Phage clone binding to Matrigel (anti-M13 ELISA, ABTS absorbance). To be noted: ABTS absorbance 405 nm vs 490 nm, 10^10 p.f.u. per clone. As for the experimental part:
96-well plates were coated with 100 μL 1/50 dilutions of Matrigel in TBS overnight at 4° C., or TBS buffer only. Plates were blocked with 3% BSA/TBS for 2 h at RT and washed three times. 10^10 p.f.u. of each phage clone was added in 0.5% TBST in triplicate to either Matrigel or BSA-coated wells. Bound phage particles were detected with peroxidase-conjugated mouse anti-M13 monoclonal antibodies at 1/5000 dilution (Amersham Pharmacia Biotech, Piscataway, N.J.). After a 1 h incubation, the reaction was developed with 2,2′-azino-bis(3-ethylbenzthiazoline-6-sulphonic acid) (ABTS) (Amersham) and the absorbance was read at 405 nm against a reference wavelength of 490 nm with a SpectraMax Plus 384 Microplate reader (Molecular Devices, Sunnyvale, Calif.).
In general terms: In an ELISA, binding on a coated surface is turned into a signal by an enzyme label.

Series [5] addresses Matrigel. Description: Sequence-specific competition binding of phage clones against synthetic peptide equivalents. To be noted: synthetic peptide vs cognate phage on Matrigel, n=3. As for the experimental part: Matrigel-coated and blocked 96-well plates were incubated in triplicate with 10^−5-10^−10 M peptide concentrations and 10^9 pfu of phage in 100 μL 0.5% TEST. After 1 h at RT, bound phages were labeled with anti-M13 mAb and color was developed and detected using ABTS absorbance (405-490 nm). Peptide inhibition curves were normalized on a percentage scale to provide an estimate of the IC50, which was calculated using a dose-response curve fit using the Origin 8 data analysis software (Northampton, Mass.) by the formula:
Y=Bottom+(Top−Bottom)/(1+10̂((Log IC50−X)*HillSlope)).

Series [6] concerns Matrigel. Description: Phage titer count analysis on Matrigel. Conditions: phage input 10^12/mL p.f.u., n=3. It counts as binding. An excerpt: (§3) In a sequence-specific competition assay, the context-dependence of the phage towards the peptide-collagen IV binding interaction was investigated. […] The binding of phage C-11 was investigated in three independent titer count analyses. Phage titers of C-11 were compared against the library (R0) for binding to Matrigel and collagen IV with an initial phage input of 10^12/mL plaque forming units (p.f.u.).

The subject of series [7] is collagen IV. The series can be described thus: Phage titer count analysis on collagen IV. It counts as binding, human. To be noted: phage input 10^12/mL p.f.u., n=3.
Source text: as §3

Setting [8] is: 168 h after single i.v. dose, paclitaxel 10 mg/kg, targeted nanoparticles 35 mg/kg, mean ± SD n=6.

Data on 5 compounds can be found in patent US20110143993A1, “ENDOTHELIAL BASEMENT MEMBRANE TARGETING PEPTIDE LIGANDS” (The Brigham and Women's Hospital, Inc., priority 2009, published 2011).

`CC(=O)O[C@H]1C(=O)[C@@]2(C)[C@H]([C@H](OC(=O)c3ccccc3)[C@]3(O)C[C@H](OC(=O)[C@H](O)[C@@H](NC(=O)c4ccccc4)c4ccccc4)C(C)=C1C3(C)C)[C@]1(OC(C)=O)CO[C@@H]1C[C@@H]2O` [paclitaxel]: in series [1], the “time after which levels in circulation could not be further detected” value is 24 h. Moreover, in series [1] (iv), the “t1/2α (h), half-life of distribution phase” value stood at 0.64 h and the “t1/2β (h), half-life of elimination phase” value is recorded as 8.02 h. In series [2], this compound registered an MTD of 10 mg/kg. The “hematological finding at day 7” value in series [3] (10 mg/kg, platelet count<400×10^9/L in two mice) is recorded as “signs of mild thrombocytopenia”. Further, the lethality entry in series [3] (15 mg/kg dose, 1.2 mg/mL, mice i.v.) is listed as “immediate death of two mice”. In addition, in series [3] (setting [8]), the “ALP, alkaline phosphatase” value stood at 41.7 ± 1.77 U/L; the “Baso, basophils” value turned out to be 0.140 ± 0.078%; the “Eo, eosinophils” value stood at 0.0023 ± 0.004%; the “HGB, hemoglobin” value is listed as 8.81 ± 0.49 mmol/L. Also, in series [3] (setting [8]), the “LYMPH, lymphocytes” value is 0.69 ± 0.13%; the “MCH, mean cell hemoglobin” value is on record as 17.1 ± 0.679 pg; the MCHC was found to be 17.9 ± 0.47 mmol/L; the “MCV, mean cell volume” value amounted to 59.5 ± 1.55 fL. Further, in series [3] (setting [8]), the “Mono, monocytes” value came out at 0.167 ± 0.064%; the “NEUT, neutrophils” value stood at 0.002 ± 0.002%; the “PLT, platelets” value is listed as 1026 ± 533 ×10^9/L; the “RBC, red blood cells” value is 8.30 ± 0.598 ×10^12/L. Moreover, the “WBC, white blood cells” value in series [3] (setting [8]) is listed as 2.05 ± 0.454 ×10^9/L. Also, in series [3] (mouse, in vivo), the “ALT, alanine aminotransferase” value worked out at 61.01 ± 6.10 U/L and the “AST, aspartate aminotransferase” value was determined as 119.83 ± 8.23 U/L.

Consider “KIFVWPY [Clone A-9, heptapeptide from phage display against collagen IV; phage clone and synthetic peptide equivalent]”, for which the “binding to Matrigel compared with the random library (R0)” value in series [4] is reported as “best candidates”. Further, the 50% inhibitory concentration (IC50) (in general, the concentration that gives 50% inhibition) in series [5] was determined as 551 nM.

Consider “KIWKLPQ [Clone C-10, heptapeptide from phage display against collagen IV; phage clone and synthetic peptide equivalent]”, for which the “binding to Matrigel compared with the random library (R0)” value in series [4] is on record as “best candidates”. Further, the half-inhibitory concentration (IC50) in series [5] came to 917 nM.

Turning to “KLWVLPK [Clone C-11, heptapeptide from phage display against collagen IV; phage clone and synthetic peptide equivalent]”, the “binding to Matrigel compared with the random library (R0)” value in series [4] is listed as “best candidates”. Also, the IC50 in series [5] is 117 nM. In series [6], the “Matrigel binding compared to the library (phage titer)” value is given as “approximately 300 fold”. For the same compound, in series [7], the “collagen IV binding compared to the library (phage titer)” value is recorded as “approximately 900 fold”.

As to “KVWSLPQ [Clone A-8, heptapeptide from phage display against collagen IV; phage clone and synthetic peptide equivalent]”, the “binding to Matrigel compared with the random library (R0)” value in series [4] was “best candidates”. For the same compound, the concentration for half-maximal inhibition (IC50) in series [5] was 1200 nM.
